Assays:
resting Lymphocytes = assay: Transfection efficiency analysis, resting lymphocytes; assay type: cell-based
Experimental: Primary lymphocytes were suspended in B&K buffer (125 mM KCl, 15 mM NaCl, 1.2 mM MgCl2, 3 mM glucose, 25 mM Hepes, pH 7.4) cell concentration was set from 1×10^7 cells/mL to 6×10^8 cells/mL together with DNA plasmid from 50 μg/mL to 1 mg/mL. Electroporation, 2.3 kV/cm, 400 μs, 4 pulses for small volume experiments (15 μl) or 2.2 kV/cm, 1.6 ms, 1 pulse for large volume experiments (0.5 mL–2 mL) was performed at room temperature. Following electroporation, cells were incubated in B&K buffer for 20 min at 37° C. for small volume experiments, or diluted by 10× volume of culture medium (RPMI-1640+10% fetal bovine serum+1% Pen-strep+2 mM L-glutamine) for large volume experiments. Cells were cultured in culture medium for various periods (up to 72 hours) and the transfection efficiency was analyzed.
Seven transgenes (Ds-Red, eGFP, βGal, hEndostatin, hEPO, hIFNα, hIL-2) were tested in these experiments. […] When pCMV-Ds-Red or pCMV-EGFP was used, the percentage of the fluorescent cells was counted, by FACS or by manual counting under phase contrast and fluorescence microscope, as the transfection efficiency. […] When pCMV-Endostatin was used, the Endostatin concentration in the supernatant was analyzed by ELISA kit from Cytimmune Sciences, Inc. (College Park, Md.). For pCMV-EPO electroporation, the erythropoietin concentration in the supernatant was analyzed by R&D ELISA kit (Minneapolis, Minn.).

hemoglobin [1] = biological target: T1, hemoglobin (Homo sapiens, UniProt P68871); conditions: relative to DPG; cited from earlier work
T1 sequence (P69905 2-142 partner limits assumed): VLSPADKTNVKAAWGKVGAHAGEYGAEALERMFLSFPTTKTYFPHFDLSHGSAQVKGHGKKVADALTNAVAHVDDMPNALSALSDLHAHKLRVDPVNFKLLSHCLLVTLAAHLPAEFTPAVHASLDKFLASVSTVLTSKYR
T1 sequence (P68871 2-147 limits assumed): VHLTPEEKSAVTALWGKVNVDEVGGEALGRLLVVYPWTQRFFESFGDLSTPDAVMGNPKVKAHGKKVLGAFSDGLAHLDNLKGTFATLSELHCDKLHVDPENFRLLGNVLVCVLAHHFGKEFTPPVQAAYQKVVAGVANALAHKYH

hemoglobin [2] = biological target: T1, hemoglobin; conditions: pH 7.4, 37° C.; cited from earlier work

With βGal the “Efficiency (% of + cells)” value (resting Lymphocytes) was 15% and the Viability (resting Lymphocytes) was 40%.
In the case of `O=P(O)(O)O[C@H]1[C@H](OP(=O)(O)O)[C@@H](OP(=O)(O)O)[C@H](OP(=O)(O)O)[C@@H](OP(=O)(O)O)[C@H]1OP(=O)(O)O` [IHP, inositol hexaphosphate], the “affinity to hemoglobin, higher than DPG” value (hemoglobin [1]) is listed as 1000 fold and the P50 of hemoglobin (hemoglobin [2]) is listed as at most 96.4 mm Hg.

Reference: patent US7029916B2, “Apparatus and method for flow electroporation of biological samples” (MAXCYTE, Inc., priority 2001, dated 2006)
